{"source": "patent US5380715A", "about": "“Ap4 A as a hypotensive agent” (Fujirebio Inc., priority 1992, dated 1995)", "key": {"rats [1]": {"tested_on": "rats", "assay": "Gradual hypotension during anesthesia in rats", "type": "in vivo, male SD rats", "conditions": "rat, enflurane", "protocol": "Male SD rats (Charles River Japan Inc.) were anesthetized with intravenous thiopental 50 mg/kg as a bolus, followed by 1% enflurane in air.\nA femoral artery was catheterized to monitor the blood pressure and heart rate, while a femoral vein was catheterized for the administration of each of the test drugs.\n(§1) The control values were obtained before the administration of each test drug. Each test drug was then administered using a syringe in a dose-dependent manner for 15 minutes. The percentage (%) of the decrease of blood pressure was determined when stabilized. Changes in heart rate (H.R.) at the administration of each test drug were measured. Furthermore,the recovery of mean blood pressure after intravenous infusion of each test drug was also determined from the decrease in heart rate and the blood pressure at a maximum dose of each test drug."}, "[2]": {"conditions": "words; cited from earlier work"}, "dogs": {"tested_on": "dogs", "assay": "Gradual hypotension during anesthesia in dogs (hemodynamics, blood gas)", "type": "in vivo, mongrel dogs", "conditions": "dog", "protocol": "Dogs were anesthetized with enflurane. […] The mean blood pressure (B.P.), heart rate (H.R.), cardiac output (C.O.), arterial oxygen tension (PaO2), mixed venos oxygen tension (PvO2), arterial carbonate tension (PaCO2), mixed venous carbonate tension (PvCO2), arterial pH (pH-a), mixed venous pH (pH-v), and base excess thereof were measured.\nMongrel dogs weighing 9 to 17 kg were anesthetized with intravenous thiopental 20 mg/kg by bolus injection, followed by 1% enflurane in 40% O2 /N2 after endotracheal intubation. […] Bilateral femoral arteries were catheterized, one for the determination of blood pressure and the other for blood sampling.\nAccess to the bilateral femoral veins was obtained for the administration of Ap4A, PG E1 or nitroglycerin and for the insertion of a ballon-tipped thermodilution catheter. The electrocardiogram was continuously monitored. The control values were obtained before the administration of each of the above-mentioned three agents. Each agent was administered using a syringe pump at titrated doses to produce gradual 20%, 40%, 50%, 60%, and 80% decreases in the mean arterial pressure (MAP) from the control value.\nAfter the target blood pressure and stable hemodynamic conditions were reached, the following parameters were measured: heart rate (HR), mean pulmonary artery pressure (PAM), pulmonary capillary wedge pressure (PCWP), and central venous pressure (CVP). Cardiac output (CO) was determined by the thermodilution method. Gas analyses of arterial and mixed venous bloods were performed using a blood gas analyzer."}, "rats [3]": {"tested_on": "rats", "assay": "Recovery of blood pressure after gradual hypotension in rats", "type": "in vivo, male SD rats", "conditions": "rat", "protocol": "FIG. 1 is a graph showing the recovery of the blood pressure of rats anesthetized with enflurane with time, when each of Ap4A ( ), PG E1 ( ) and nitroglycerin ( ) was used as a test drug to attain gradual hypotension, with the blood pressure before the administration of each test drug being set 100% for reference.\nThe recovery of blood pressure after gradual hypotension by use of each of Ap4A, PG E1 and nitroglycerin was also tested.\nas §1\nIn a test similar to the above, each of Ap4A, PG E1, and nitroglycerin was administered to rats, so that about 65% fall in blood pressure, about 55% fall in blood pressure, and about 35% fall in blood pressure were stepwise attained. With respect to each agent, the recovery of blood pressure was tested."}, "[4]": {"conditions": "enflurane, at -20% blood pressure"}}, "note": "Entries after “also recorded” stand apart in the source; their conditions may differ.", "data": [{"smiles": "O=[N+]([O-])OCC(CO[N+](=O)[O-])O[N+](=O)[O-]", "note": "[nitroglycerin, reference compound]", "values": [{"measurement": "Blood Pressure (Δ%)", "setting": "rats [1]; infusion 0.03 μg/kg/min", "result": 0, "unit": "%"}, {"measurement": "Heart Rate (Δ%)", "setting": "rats [1]; infusion 0.03 μg/kg/min", "result": 0, "unit": "%"}, {"measurement": "Blood Pressure (Δ%)", "setting": "rats [1]; infusion 0.1 μg/kg/min", "result": 0, "unit": "%"}, {"measurement": "Heart Rate (Δ%)", "setting": "rats [1]; infusion 0.1 μg/kg/min", "result": 0, "unit": "%"}, {"measurement": "Blood Pressure (Δ%)", "setting": "rats [1]; infusion 0.3 μg/kg/min", "result": "-1.0 ± 1.0", "unit": "%"}, {"measurement": "Heart Rate (Δ%)", "setting": "rats [1]; infusion 0.3 μg/kg/min", "result": "-0.3 ± 0.5", "unit": "%"}, {"measurement": "Blood Pressure (Δ%)", "setting": "rats [1]; infusion 1 μg/kg/min", "result": "-7.5 ± 3.2", "unit": "%"}, {"measurement": "Heart Rate (Δ%)", "setting": "rats [1]; infusion 1 μg/kg/min", "result": "-1.5 ± 1.1", "unit": "%"}, {"measurement": "Blood Pressure (Δ%)", "setting": "rats [1]; infusion 3 μg/kg/min", "result": "-16.4 ± 4.4", "unit": "%"}, {"measurement": "Heart Rate (Δ%)", "setting": "rats [1]; infusion 3 μg/kg/min", "result": "-6.5 ± 2.3", "unit": "%"}, {"measurement": "Blood Pressure (Δ%)", "setting": "rats [1]; infusion 10 μg/kg/min", "result": "-24.7 ± 4.4", "unit": "%"}, {"measurement": "Heart Rate (Δ%)", "setting": "rats [1]; infusion 10 μg/kg/min", "result": "-13.9 ± 4.0", "unit": "%"}, {"measurement": "Blood Pressure (Δ%)", "setting": "rats [1]; infusion 30 μg/kg/min", "result": "-27.6 ± 5.2", "unit": "%"}, {"measurement": "Heart Rate (Δ%)", "setting": "rats [1]; infusion 30 μg/kg/min", "result": "-13.8 ± 4.7", "unit": "%"}, {"measurement": "shortcomings / adverse effects", "setting": "[2]", "result": "congestion by the expansion of vanation, and tachycardia are caused; also recorded: sthenia of brain pressure is caused; also recorded: the arterial oxygen tension (PaO2) is decreased during hypotensive anesthesia"}, {"measurement": "fall in blood pressure attainable", "setting": "dogs; enflurane", "result": "~30", "unit": "%"}, {"measurement": "Arterial Carbonate Tension PaCO2", "setting": "dogs; [4]", "result": "36.4 ± 1.6", "unit": "mmHg"}, {"measurement": "Arterial Oxygen Tension PaO2", "setting": "dogs; [4]", "result": "229.9 ± 2.7", "unit": "mmHg"}, {"measurement": "Arterial pH (pH-a)", "setting": "dogs; [4]", "result": "7.315 ± 0.020"}, {"measurement": "Body Temperature BT", "setting": "dogs; [4]", "result": "38.6 ± 0.3", "unit": "°C"}, {"measurement": "Cardiac Output C.O.", "setting": "dogs; [4]", "result": "1.58 ± 0.21", "unit": "L/min"}, {"measurement": "Central Venous Pressure CVP", "setting": "dogs; [4]", "result": "2.32 ± 0.75", "unit": "mmHg"}, {"measurement": "Dose", "setting": "dogs; [4]", "result": "42.2 ± 2.0", "unit": "µg/kg/min"}, {"measurement": "Heart Rate H.R.", "setting": "dogs; [4]", "result": "191.7 ± 7.5", "unit": "beats/min"}, {"measurement": "Hematocrit Value Hct", "setting": "dogs; [4]", "result": "42.2 ± 2.0", "unit": "%"}, {"measurement": "Mean Blood Pressure B.P. (mean)", "setting": "dogs; [4]", "result": "101.0 ± 1.5"}, {"measurement": "Mean Blood Pressure B.P. (Δ%)", "setting": "dogs; [4]", "result": "-18.7 ± 0.9", "unit": "%"}, {"measurement": "Mixed Venous Carbonate Tension PvCO2", "setting": "dogs; [4]", "result": "39.6 ± 1.6", "unit": "mmHg"}, {"measurement": "Mixed Venous Oxygen Tension PvO2", "setting": "dogs; [4]", "result": "46.5 ± 2.7", "unit": "mmHg"}, {"measurement": "Mixed Venous pH (pH-v)", "setting": "dogs; [4]", "result": "7.300 ± 0.014"}, {"measurement": "Pulmonary Artery Pressure PAM", "setting": "dogs; [4]", "result": "12.8 ± 1.0", "unit": "mmHg"}, {"measurement": "Pulmonary Capillary Wedge Pressure PCWP", "setting": "dogs; [4]", "result": "8.0 ± 0.6", "unit": "mmHg"}, {"measurement": "effect on arterial pH / venous pH", "setting": "dogs; result in words", "result": "significantly decrease arterial pH or have a tendency to decrease arterial pH"}, {"measurement": "effect on heart rate", "setting": "dogs; result in words", "result": "tendency to increase the heart rate when a 20% fall in blood pressure is attained"}, {"measurement": "effect on oxygen tension", "setting": "dogs; result in words", "result": "decreases PaO2"}, {"measurement": "recovered blood pressure (before administration = 100%), plateau", "setting": "rats [3]; plateau", "result": "about 85%"}, {"measurement": "fall in blood pressure attained before recovery", "setting": "rats [3]; stepwise", "result": "about 35%"}, {"measurement": "rapidness of the recovery of blood pressure", "setting": "rats [3]; order in words", "result": "Ap4A>PG E1 >nitroglycerin"}]}]}
